Experimental data reported in patent publication US20120309838A1, “USE OF AGOMELATINE IN OBTAINING MEDICAMENTS INTENDED FOR THE TREATMENT OF OBSESSIVE-COMPULSIVE DISORDER (OCD)” (Les Laboratoires Servier, priority 2010, published 2012).
“Also recorded” adds a separate entry of the source.

Assays:
[1] = test system: Male mice of the NMRI strain; test: Spontaneous marble burying in mice (model of Obsessive-Compulsive Disorder); type: in vivo; details: for number of marbles buried: injected 30 minutes before test, 30 minutes' exploration, 24 marbles, carrier 20.2±0.6
Description: Pre-clinical studies were carried out using a model of Obsessive-Compulsive Disorder (OCD), confirming the potential of agomelatine for treatment of this pathology. […] The study was carried out as follows. Male mice of the NMRI strain (Iffa-Credo, L'Arbresle, France), weighing 20-25 g on the day of the experiment, were placed individually in Macrolon boxes (30×18×19 cm) containing 5 cm of sawdust and covered with a perforated plexiglass plate. Twenty-four “cat's eye” glass marbles were evenly distributed on the sawdust at the periphery of the box. At the end of 30 minutes' free exploration, the animals were removed from the box and the number of buried marbles was counted. Agomelatine or the carrier (control) was injected 30 minutes before the start of the test.

[2] = test system: out-patients having a primary diagnosis of Obsessive-Compulsive Disorder; test: Double-blind placebo-controlled clinical study in out-patients with Obsessive-Compulsive Disorder; type: in vivo, human; details: 25 mg, 16 weeks of treatment
Description: A clinical study comparing agomelatine with placebo was carried out in 80 out-patients more than 18 and less than 65 years in age, having a primary diagnosis of Obsessive-Compulsive Disorder according to the criteria of DSM-IV-TR. The patients must have, on entry into the study, a score of 20 or more on the Y-BOCS scale (Yale Brown Obsessive Compulsive Scale) and have been previously treated for their Obsessive-Compulsive Disorder with a serotonin reuptake inhibitor (SRI). The patients must have a depression severity score of less than 24 on the MADRS depression scale.
The study is a double-blind placebo-controlled study for a duration of treatment of 16 weeks. The patients are randomised either into the placebo group or into the 25 mg agomelatine group with the possibility of increasing the dose of agomelatine to 50 mg in the event of failure to respond after 8 weeks of treatment (criterion for failure to respond: less than 20% reduction in the total Y-BOCS score).
The main criterion for the assessment of efficacy is the reduction in the total score on the Y-BOCS scale. […] The presence of depressive symptoms and their course over time are analysed by the MADRS depression scale at the start of treatment and after 16 weeks of treatment. […]

[3] = test system: patients; test: Tolerability observed in clinical trials on close to 3900 patients; type: in vivo, human
Description: Amongst those effects, the discontinuation syndrome observed on stopping treatment with the customary psychotropic agents is absent in the case of agomelatine, which makes it a treatment of choice in this indication.

COc1ccc2cccc(CCNC(C)=O)c2c1 [Agomelatine, N-[2-(7-methoxy-1-naphthyl)ethyl]acetamide] was tested, and the “number of marbles buried” value ([1]; 10 mg/kg intraperitoneal, n=6) was 19.2±1.3, the “number of marbles buried” value ([1]; 40 mg/kg intraperitoneal, n=6, P<0.05 vs carrier) was 15.3±3.0 and the “number of marbles buried” value ([1]; 80 mg/kg intraperitoneal, n=5, P<0.05 vs carrier) was 4.6±1.9. For the same compound, the “effect on spontaneous marble burying (in words)” value ([1]; intraperitoneal, doses of 10, 40 and 80 mg/kg) was “greatly reduced spontaneous marble burying in mice in dose-dependent manner; also recorded: statistically significant activity”, the “efficacy in the treatment of Obsessive-Compulsive Disorder (in words)” value ([2]; possibly increased to 50 mg after 8 weeks, versus placebo, 80 out-patients) was “confirm the efficacy” and the “acceptability profile (in words)” value ([2]; possibly increased to 50 mg) was “good acceptability profile”. For the same compound, the “tolerability (in words)” value ([3]; clinical trials on close to 3900 patients) was “excellent tolerability” and the “discontinuation syndrome on stopping treatment” value ([3]; compared with the customary psychotropic agents) was “absent”.
